In patent US20110152267A1, “Compositions and Methods for Treating Hyperproliferative Disorders” (Texas Tech University System, priority 2009, published 2011):

Key:
Format in all cases: cell-based, human
Conditions in all cases: 96 h
[1] = system: T98G Glioblastoma multiforme cell line; test: DIMSCAN cytotoxicity, fenretinide + L-threo-sphinganines 3:1 (Example B6)
Description: (§1) Cytotoxicity Assay—Once again, cytotoxicity is determined using the DIMSCAN assay system (R. Proffitt et al., Cytometry 24, 204-213 (1996); T. Frgala et al., Mol Cancer Ther. 6:886-97, 2007). The system employs digital imaging microscopy to quantify viable cells, which selectively accumulate fluorescein diacetate to become brightly fluorescent. The system is capable of measuring cytotoxicity over a 4-5 log dynamic range by quenching the residual fluorescence of dead and dying cells with eosin Y and quantifying the total fluorescence of viable cells using digital thresholding. Measured fluorescence is directly proportionate to the number of viable cells. A comparison of the total fluorescence of a drug-treated cell population to the fluorescence of a similar number of untreated cells yields a survival fraction. In brief, 2000 to 10,000 cells/well (depending on size and growth rates) are replicate plated into 60 wells of a 96-well tissue culture plate in 0.1 mL of whole medium and allowed to attach overnight. Drug(s) are then added in 0.05 mL of whole medium to the final concentrations indicated. Drugs (fenretinide, and various chain length L-threo-sphinganines) were tested both as single agents and in a 3:1 ratio of fenretinide:sphinganine. C18-L-threo-sphinganine, or “safingol,” was also tested and results shown for reference. There are 12 wells treated per drug concentration. Twelve wells receive drug vehicle-only to the appropriate final concentration and serve as controls for the plate. Cells are incubated for 96 hours at 37° C. in ambient air with 5% CO2. Fluorescein diacetate is then added to each well in 0.05 mL media to a final concentration of 8 microgram/mL. Cells are incubated for a further 15 minutes at 37° C. and 0.03 mL of 0.5% eosin Y is added to each well. Total fluorescence of viable cells is then measured by digital imaging microscopy. Results were graphed as the ratio of the fluoresecence of drug-treated wells to non-drug treated control wells (i.e., Survival Fraction). All tests were performed at least twice. Representative results are shown.
(§2) The Combination Index (CI) is a term to describe mathematical modeling of the pharmacologic effects on cytotoxicity (cell death) of two drugs in combination based. Cytotoxic “synergy” is defined as a cell death affect which is greater than would be expected from a simple product of the single agent cytotoxicities alone (i.e. an “additive” effect). By Chou-Talalay analysis, a CI<0.9 on a Fraction Affected (“Fa”, i.e. fraction of cells killed) indicates synergy, with smaller numbers indicating greater synergy; a CI of 0.9-1.1 signifies an additive or near-additive effect; and a CI>1.1 means the drug combination is antagonistic.
Fenretinide and L-threo-sphinganines tested in human Glioblastoma multiforme (brain cancer) cell line, T98G.

[2] = system: HT-29 colorectal adenocarcinoma cell line; test: DIMSCAN cytotoxicity, fenretinide + L-threo-sphinganines 3:1 (Example B10)
Description: as §1, §2
Fenretinide and L-threo-sphinganines tested in human colorectal adenocarcinoma (colon cancer) cell line, HT-29.

[3] = system: U-266 Multiple Myeloma cell line; test: DIMSCAN cytotoxicity, fenretinide + L-threo-sphinganines 3:1 (Example B3)
Description: as §1, §2
Fenretinide and L-threo-sphinganines tested in human Multiple Myeloma (a cancer of the blood and bone marrow) cell line, U-266.

[4] = system: A-549 lung adenocarcinoma cell line; test: DIMSCAN cytotoxicity, fenretinide + L-threo-sphinganines 3:1 (Example B13)
Description: as §1, §2
Fenretinide and L-threo-sphinganines tested in human lung adenocarcinoma (lung cancer) cell line, A-549.

[5] = system: SJ-G2 Glioblastoma cell line; test: DIMSCAN cytotoxicity, fenretinide + L-threo-sphinganines 3:1 (Example B8)
Description: as §1, §2
Fenretinide and L-threo-sphinganines tested in human Glioblastoma (brain cancer) cell line, SJ-G2.

[6] = system: A-2058 melanoma cell line; test: DIMSCAN cytotoxicity, fenretinide + L-threo-sphinganines 3:1 (Example B11)
Description: as §1, §2
Fenretinide and L-threo-sphinganines tested in human melanoma (skin cancer) cell line, A-2058.

[7] = system: A-172 Glioblastoma multiforme cell line; test: DIMSCAN cytotoxicity, fenretinide + L-threo-sphinganines 3:1 (Example B4); set-up: key to CI (Combination Index): Chou-Talalay CI: <0.9 synergy, 0.9-1.1 additive, >1.1 antagonism
Description: as §1, §2
Fenretinide and L-threo-sphinganines tested in human Glioblastoma multiforme (brain cancer) cell line, A-172.

[8] = system: OVCAR-8 ovarian adenocarcinoma cell line; test: DIMSCAN cytotoxicity, fenretinide + L-threo-sphinganines 3:1 (Example B15); set-up: key to CI (Combination Index): Chou-Talalay CI: <0.9 synergy, 0.9-1.1 additive, >1.1 antagonism
Description: as §1, §2
Fenretinide and L-threo-sphinganines tested in human ovarian adenocarcinoma (ovarian cancer) cell line, OVCAR-8.

[9] = 4-HPR 1.5 μM + L-threo-sphinganine 0.5 μM
[10] = 4-HPR 3 μM + L-threo-sphinganine 1 μM
[11] = 4-HPR 6 μM + L-threo-sphinganine 2 μM
[12] = 4-HPR 9 μM + L-threo-sphinganine 3 μM

CCCCCCCCCCCCCCCCC[C@H](O)[C@@H](N)CO [C20, (2S,3S)-2-amino-1,3-icosanediol]
CI (Combination Index) [1, 9]: 2.4
Fa (fraction affected) [1, 9]: 0.397
CI (Combination Index) [1, 10]: 0.2
Fa (fraction affected) [1, 10]: 0.989
CI (Combination Index) [1, 11]: >0.1
Fa (fraction affected) [1, 11]: 1.000
CI (Combination Index) [1, 12]: >0.1
Fa (fraction affected) [1, 12]: 1.000
CI (Combination Index) [2, 9]: 0.8
Fa (fraction affected) [2, 9]: 0.287
CI (Combination Index) [2, 10]: 0.6
Fa (fraction affected) [2, 10]: 0.852
CI (Combination Index) [2, 11]: 0.6
Fa (fraction affected) [2, 11]: 0.971
CI (Combination Index) [2, 12]: 0.4
Fa (fraction affected) [2, 12]: 0.998
CI (Combination Index) [3, 9]: 1.2
Fa (fraction affected) [3, 9]: 0.259
CI (Combination Index) [3, 10]: 1.3
Fa (fraction affected) [3, 10]: 0.688
CI (Combination Index) [3, 11]: 0.4
Fa (fraction affected) [3, 11]: 0.999
CI (Combination Index) [3, 12]: >0.1
Fa (fraction affected) [3, 12]: 1.000
CI (Combination Index) [4, 9]: 2.1
Fa (fraction affected) [4, 9]: 0.000
CI (Combination Index) [4, 10]: 4.1
Fa (fraction affected) [4, 10]: 0.000
CI (Combination Index) [4, 11]: 1.1
Fa (fraction affected) [4, 11]: 0.017
CI (Combination Index) [4, 12]: 1.1
Fa (fraction affected) [4, 12]: 0.499
CI (Combination Index) [5, 9]: 0.9
Fa (fraction affected) [5, 9]: 0.408
CI (Combination Index) [5, 10]: 0.8
Fa (fraction affected) [5, 10]: 0.773
CI (Combination Index) [5, 11]: 1.1
Fa (fraction affected) [5, 11]: 0.896
CI (Combination Index) [5, 12]: 0.2
Fa (fraction affected) [5, 12]: 0.999
CI (Combination Index) [6, 9]: 0.7
Fa (fraction affected) [6, 9]: 0.311
CI (Combination Index) [6, 10]: 1.0
Fa (fraction affected) [6, 10]: 0.742
CI (Combination Index) [6, 11]: 1.7
Fa (fraction affected) [6, 11]: 0.870
CI (Combination Index) [6, 12]: 0.5
Fa (fraction affected) [6, 12]: 1.000
CI (Combination Index) [7, 9]: 2.8
Fa (fraction affected) [7, 9]: 0.039
CI (Combination Index) [7, 10]: 1.0
Fa (fraction affected) [7, 10]: 0.594
CI (Combination Index) [7, 11]: 0.6
Fa (fraction affected) [7, 11]: 0.983
CI (Combination Index) [7, 12]: >0.1
Fa (fraction affected) [7, 12]: 1.000
CI (Combination Index) [8, 9]: 0.5
Fa (fraction affected) [8, 9]: 0.259
CI (Combination Index) [8, 10]: 0.6
Fa (fraction affected) [8, 10]: 0.366
CI (Combination Index) [8, 11]: 0.8
Fa (fraction affected) [8, 11]: 0.453
CI (Combination Index) [8, 12]: 0.2
Fa (fraction affected) [8, 12]: 0.956
